Like-named read-outs stand apart in the source and are kept apart here.
Assays:
LXR α LBD protein = LXR α LBD protein (Homo sapiens (Human), UniProt Q13133); assay: LXR α radioligand binding assay (SPA, competition with [3H]TO901317); details: read-out: LXRα Binding Ki
[1] = molecular target: Gal4 DNA binding domain fused to the LBD of LXRα in HEK293 cells (Homo sapiens (Human), UniProt Q13133); assay: LXR luciferase transcriptional reporter gene assay, agonist mode, LXRα; format: cell-based; details: for EC50: read-out: Cell LXRα EC50
[2] = molecular target: Gal4 DNA binding domain fused to the LBD of LXRβ in HEK293 cells (Homo sapiens (Human), UniProt P55055); assay: cell-based
[3] = Biological Test Example 2, agonist mode
[4] = Biological Test Example 2, agonist mode, read-out: Cell LXRβ EC50

Sequence of LXR α LBD protein (Q13133 209-447): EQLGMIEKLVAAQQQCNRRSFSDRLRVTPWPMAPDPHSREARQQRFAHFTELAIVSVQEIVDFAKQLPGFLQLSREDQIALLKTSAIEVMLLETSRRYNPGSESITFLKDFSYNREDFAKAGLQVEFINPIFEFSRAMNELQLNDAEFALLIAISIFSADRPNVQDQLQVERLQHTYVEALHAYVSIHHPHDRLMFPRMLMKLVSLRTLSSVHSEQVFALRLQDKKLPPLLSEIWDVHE
Sequence of Gal4 DNA binding domain fused to the LBD of LXRα in HEK293 cells (Q13133 209-447): as above
Sequence of Gal4 DNA binding domain fused to the LBD of LXRβ in HEK293 cells (P55055 222-460 limits assumed): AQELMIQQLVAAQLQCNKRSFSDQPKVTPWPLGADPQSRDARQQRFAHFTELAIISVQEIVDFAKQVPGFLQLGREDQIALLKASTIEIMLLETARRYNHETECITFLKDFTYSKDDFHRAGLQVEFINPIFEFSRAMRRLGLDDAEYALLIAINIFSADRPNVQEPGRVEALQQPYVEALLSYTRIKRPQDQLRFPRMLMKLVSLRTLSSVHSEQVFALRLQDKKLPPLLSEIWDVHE

| SMILES | Ki (LXR α LBD protein) [µM] | Cell LXRα efficacy [1] | EC50 ([1]; agonist mode) [µM] | also measured |
| --- | --- | --- | --- | --- |
| CC(C)[C@@H]1CN(c2cccc(S(C)(=O)=O)c2)CCN1C[C@H]1CC[C@@H](C(F)(F)F)CC1 (single isomer, unassigned) [48-9] | 0.49 | 3201 (94) % | – | EC50 [1]: 3.2 µM |
| CC(C)[C@@H]1CN(c2cccc(S(C)(=O)=O)c2)CCN1C[C@H]1CC[C@H](C(F)(F)F)CC1 (single isomer, unassigned) [48-10] | 1.68 | 9657 (80) % | – | EC50 [1]: 9.66 µM |
| CC(C)[C@H]1CN(c2cccc(S(C)(=O)=O)c2)CCN1C[C@H]1CC[C@H](C(F)(F)F)CC1 (single isomer, unassigned) [48-12] | 0.245 | 363 (66) % | – | EC50 [1]: 0.363 µM |
| CC1(C)CCC(CN2CCN(c3ccc(CO)c(S(C)(=O)=O)c3)C[C@@H]2c2ccccc2)CC1 (single isomer, unassigned) [48-26] | 0.039 | 364 (73) % | 0.364 | – |
| CC1(C)CCC(CN2CCN(c3ccc(CO)c(S(C)(=O)=O)c3)C[C@H]2c2ccccc2)CC1 (single isomer, unassigned) [48-27] | 2.86 | 18123 (60) % | 18.1 | – |
| CS(=O)(=O)c1cccc(N2CCN(C[C@H]3CC[C@H](C(F)(F)F)CC3)[C@H](c3ccccc3Cl)C2)c1 (single isomer, unassigned) [48-47] | – | – | – | Cell LXRβ efficacy [2, 3]: 26%; EC50 [2, 4]: 1.39 µM; EC50 [1]: > 20 µM |
| CC(C)[C@H]1CN(c2ccc(CO)c(S(C)(=O)=O)c2)CCN1C[C@H]1CCN(CC(F)(F)F)C1 (single isomer, unassigned) [48-58] | – | 3252 (56) % | – | Ki (LXR α LBD protein; Biological Test Example 1): > 3.33 µM; EC50 [1, 3]: 3.25 µM |
| CC(C)[C@H]1CN(c2ccc(CO)c(S(C)(=O)=O)c2)CCN1C[C@@H]1CCN(CC(F)(F)F)C1 (single isomer, unassigned) [48-59] | – | 1189 (54) % | – | Ki (LXR α LBD protein; Biological Test Example 1): 3.16 µM; EC50 [1, 3]: 1.19 µM |
| CS(=O)(=O)c1cccc(N2CCN(C[C@H]3C[C@@H]4[C@H](C3)C4(F)F)[C@H](c3ccccc3)C2)c1 (single isomer, unassigned) [48-65] | – | – | – | Cell LXRβ efficacy [2, 3]: 48%; EC50 [2, 4]: 7.05 µM; EC50 [1]: > 20 µM |
| CC(C)[C@H]1CN(c2cccc(S(C)(=O)=O)c2)CCN1C[C@H]1CC[C@@H](C(F)(F)F)CC1 (single isomer, unassigned) [Cpd No 48-11] | – | 53 (101) % | 0.053 | – |
| CCOC(=O)c1csc(-c2ccc(N3CCN(C(=O)OC(C)(C)C)[C@H](C(C)C)C3)cc2S(C)(=O)=O)n1 [2-4, ethyl (R)-2-(4-(4-(tert-butoxycarbonyl)-3-isopropylpiperazin-1-yl)-2-(methylsulfonyl)phenyl)thiazole-4-carboxylate] | 1.07 | 4227 (62) % | 4.23 | – |
| CC(C)[C@@H]1CN(c2ccc(CO)c(S(C)(=O)=O)c2)CCN1c1ccnc(C(N)=O)c1 [4-6, (R)-4-(4-(4-(hydroxymethyl)-3-(methylsulfonyl)phenyl)-2-isopropylpiperazin-1-yl)picolinamide] | > 3.33 | 9385 (44) % | 9.39 | – |
| CC(C)[C@@H]1CN(c2ccc(F)c(S(C)(=O)=O)c2)CCN1C(=O)OCC(F)(F)F [5-4, 2,2,2-trifluoroethyl (R)-4-(4-fluoro-3-(methylsulfonyl)phenyl)-2-isopropylpiperazine-1-carboxylate] | – | – | – | EC50 [2]: 0.732 µM |
| CC(C)[C@@H]1CN(c2cccc(S(C)(=O)=O)c2)CCN1c1ncc(Br)cn1 [7-16, (R)-5-bromo-2-(2-isopropyl-4-(3-(methylsulfonyl)phenyl)piperazin-1-yl)pyrimidine] | – | 1282 (85) % | 1.28 | – |
| CC(F)(F)[C@H]1CN(c2cccc(S(C)(=O)=O)c2)CCN1c1nccc(C(F)(F)F)n1 [7-25, (R)-2-(2-(1,1-difluoroethyl)-4-(3-(methylsulfonyl)phenyl)piperazin-1-yl)-4-(trifluoromethyl)pyrimidine] | 4.82 | – | > 20 | – |
| CC(F)(F)[C@@H]1CN(c2cccc(S(C)(=O)=O)c2)CCN1c1nccc(C(F)(F)F)n1 [7-26, (S)-2-(2-(1,1-difluoroethyl)-4-(3-(methylsulfonyl)phenyl)piperazin-1-yl)-4-(trifluoromethyl)pyrimidine] | 0.193 | 1211 (37) % | 1.21 | – |

| SMILES | Ki (LXR α LBD protein) [µM] | Cell LXRα efficacy [1] | EC50 ([1]; agonist mode) [µM] | also measured |
| --- | --- | --- | --- | --- |
| CS(=O)(=O)c1cccc(N2CCN(c3nccc(C(F)(F)F)n3)[C@@H](C(F)(F)F)C2)c1 [7-27, (R)-2-(4-(3-(methylsulfonyl)phenyl)-2-(trifluoromethyl)piperazin-1-yl)-4-(trifluoromethyl)pyrimidine] | 7.19 | – | – | EC50 [1]: > 20 µM |
| CC(C)[C@@H]1CN(c2ccc(F)c(S(C)(=O)=O)c2)CCN1c1ccc(F)c(C(F)(F)F)n1 [7-33, (R)-4-(4-fluoro-3-(methylsulfonyl)phenyl)-1-(5-fluoro-6-(trifluoromethyl)pyridin-2-yl)-2-isopropylpiperazine] | – | 307 (115) % | 0.307 | – |
| COC(=O)c1cnc(N2CCN(c3ccc(F)c(S(=O)(=O)N(C)Cc4ccc(OC)cc4)c3)C[C@H]2C(C)C)nc1C(F)(F)F [9-3, methyl (R)-2-(4-(4-fluoro-3-(N-(4-methoxybenzyl)-N-methylsulfamoyl)phenyl)-2-isopropylpiperazin-1-yl)-4-(trifluoromethyl)pyrimidine-5-carboxylate] | – | 951 (50) % | 0.951 | – |
| Cc1nc(N2CCN(c3ccc(F)c(S(C)(=O)=O)c3)C[C@@H]2C(C)(C)O)ccc1C(F)(F)F [10-9, (R)-2-(4-(4-fluoro-3-(methylsulfonyl)phenyl)-1-(6-methyl-5-(trifluoromethyl)pyridin-2-yl)piperazin-2-yl)propan-2-ol] | – | – | > 20 | – |
| Cc1nc(N2CCN(c3ccc(F)c(S(C)(=O)=O)c3)C[C@H]2C(C)(C)O)ccc1C(F)(F)F [10-10, (S)-2-(4-(4-fluoro-3-(methylsulfonyl)phenyl)-1-(6-methyl-5-(trifluoromethyl)pyridin-2-yl)piperazin-2-yl)propan-2-ol] | – | 13605 (107) % | 13.6 | – |
| CC(C)[C@@H]1CN(c2ccc(F)c(S(C)(=O)=O)c2)CCN1c1ncc(CN)c(C(F)(F)F)n1 [15-2, (R)-(2-(4-(4-fluoro-3-(methylsulfonyl)phenyl)-2-isopropylpiperazin-1-yl)-4-(trifluoromethyl)pyrimidin-5-yl)methanamine] | – | – | > 20 | Cell LXRβ efficacy [2]: 3001 (13) %; EC50 [2]: 3 µM |
| CS(=O)(=O)c1cc(N2CCN(c3ncc(C(=O)O)c(C(F)(F)F)n3)[C@H](c3ccc(F)cc3)C2)ccc1F [16-2, (R)-2-(4-(4-fluoro-3-(methylsulfonyl)phenyl)-2-(4-fluorophenyl)piperazin-1-yl)-4-(trifluoromethyl)pyrimidine-5-carboxylic acid] | – | – | > 20 | EC50 [2]: > 20 µM |
| COC(=O)c1ccc(N2CCN(Cc3ccc(C(F)(F)F)c(Cl)c3)C(c3ccccc3)C2)cc1S(C)(=O)=O (centres unmarked) [46-38, methyl 4-(4-(3-chloro-4-(trifluoromethyl)benzyl)-3-phenylpiperazin-1-yl)-2-(methylsulfonyl)benzoate] | – | 1088 (25) % | 1.09 | – |
| CS(=O)(=O)c1cccc(N2CCN(Cc3ccc(C(F)(F)F)nc3)C(c3ccc(Br)cc3)C2)c1 (centres unmarked) [46-61, 2-(4-bromophenyl)-4-(3-(methylsulfonyl)phenyl)-1-((6-(trifluoromethyl)pyridin-3-yl)methyl)piperazine] | – | – | > 20 | – |
| CS(=O)(=O)c1cccc(N2CCN(C[C@H]3CCC[C@@H](C(F)(F)F)C3)[C@@H](c3ccc(F)cc3)C2)c1 [48-42, (S)-2-(4-fluorophenyl)-4-(3-(methylsulfonyl)phenyl)-1-(((1S,3R)-3-(trifluoromethyl)cyclohexyl)methyl)piperazine] | – | – | > 20 | – |
| CS(=O)(=O)c1cccc(N2CCN(C[C@@H]3C[C@@H]4[C@H](C3)C4(F)F)[C@H](c3ccccc3)C2)c1 [48-67, (R)-1-(((1R,3s,5S)-6,6-difluorobicyclo[3.1.0]hexan-3-yl)methyl)-4-(3-(methylsulfonyl)phenyl)-2-phenylpiperazine] | – | 7547 (30) % | – | Cell LXRβ efficacy [2, 3]: 47%; EC50 [2, 4]: 2.4 µM; EC50 [1]: 7.55 µM |
| CC(C)[C@H]1CN(c2cccc(S(C)(=O)=O)c2)CCN1CC1CCC(C(F)(F)F)NC1 (stereo partly drawn) [48-68, (2S)-2-isopropyl-4-(3-(methylsulfonyl)phenyl)-1-((6-(trifluoromethyl)piperidin-3-yl)methyl)piperazine] | – | 1224 (75) % | – | EC50 [1, 3]: 1.22 µM |
| CC(C)[C@@H]1CN(c2ccc(F)c(S(C)(=O)=O)c2)CCN1C(=O)OC1CC(F)(F)C1(F)F (stereo partly drawn) [Cpd No 5-1, 2,2,3,3-tetrafluorocyclobutyl (2R)-4-(4-fluoro-3-(methylsulfonyl)phenyl)-2-isopropylpiperazine-1-carboxylate] | – | – | – | EC50 [2]: 0.272 µM |
| CC(C)[C@@H]1CN(c2ccc(F)c(S(C)(=O)=O)c2)CCN1c1ncc(Cl)c(C2CC2)n1 [Cpd No 22-1, (R)-5-chloro-4-cyclopropyl-2-(4-(4-fluoro-3-(methylsulfonyl)phenyl)-2-isopropylpiperazin-1-yl)pyrimidine] | – | 1482 (31) % | – | Cell LXRβ efficacy [2]: 139 (14) %; EC50 [2]: 0.139 µM; EC50 [1]: 1.48 µM |
| Cc1cnc(N2CCN(c3ccc(F)c(S(C)(=O)=O)c3)C[C@H]2C(C)C)nc1C(F)(F)F [Cpd No 37-3, (R)-2-(4-(4-fluoro-3-(methylsulfonyl)phenyl)-2-isopropylpiperazin-1-yl)-5-methyl-4-(trifluoromethyl)pyrimidine] | – | – | – | Cell LXRβ efficacy [2]: 11 (96) %; EC50 [2]: 0.011 µM |
